Legend:
[1] = target: T1, MtSHMT3 (chloroplastic serine hydroxymethyltransferase) (Medicago truncatula, UniProt G7ILW0); assay: X-ray crystallography, […] A; format: binding
T1 construct: gene MTR_2g018290; residues 82-533, targeting peptide removed (N-truncated at F82, begins FLDYGLSEA); His6-TEV tag cut, Ser-Asn-Ala linker left; E. coli BL21 Gold, pMCSG68; homotetramer, ~197 kDa theoretical; active site shared within tight dimer

[2] = target: T1, MtSHMT3 (chloroplastic serine hydroxymethyltransferase); assay: X-ray crystallography, […] A; format: binding; details: covalent; internal aldimine (Schiff base) with K318; full occupancy in chains A and B; crystals from 55% Tacsimate pH 7.0; PLP from expression culture
[3] = target: chloroplast-targeted serine hydroxymethyltransferase from Medicago truncatula (MtSHMT3), residues 82-533 (Medicago truncatula); assay: SEC; HiLoad Superdex 200 16/60; 25 mM Hepes-NaOH pH 7.5, 100 mM KCl, 50 mM NaCl, 1 mM TCEP; standard curve from thyroglobulin, gamma-globulin, ovalbumin and myoglobin
[4] = target: chloroplast-targeted serine hydroxymethyltransferase from Medicago truncatula (MtSHMT3), residues 82-533 (Medicago truncatula); assay: crystal structure; three non-isomorphous crystal forms (holo/apo in Tacsimate pH 7.0; Ser-soaked in MES pH 6.5, PEG 3350, ammonium acetate; selenourea-soaked); assemblies analysed with PISA

T1 sequence (G7ILW0 entry or part of it): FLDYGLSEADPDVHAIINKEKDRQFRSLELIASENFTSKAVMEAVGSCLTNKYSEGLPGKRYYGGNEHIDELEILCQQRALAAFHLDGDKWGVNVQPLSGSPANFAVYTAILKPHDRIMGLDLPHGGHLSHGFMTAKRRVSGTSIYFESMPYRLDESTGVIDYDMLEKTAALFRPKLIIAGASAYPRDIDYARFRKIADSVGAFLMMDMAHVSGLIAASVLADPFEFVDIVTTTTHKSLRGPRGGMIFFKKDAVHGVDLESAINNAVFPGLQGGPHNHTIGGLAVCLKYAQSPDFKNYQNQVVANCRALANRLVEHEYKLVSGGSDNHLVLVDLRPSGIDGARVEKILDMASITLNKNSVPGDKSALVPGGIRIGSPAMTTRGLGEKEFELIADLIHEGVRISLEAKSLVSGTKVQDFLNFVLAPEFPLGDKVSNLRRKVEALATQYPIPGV

Question: How did the “X-ray crystallography, 1.91 A” value ([1]; Ser-soaked crystal, covalent PLP-Gly external aldimine in chains B and F, free Gly with PLP internal aldimine in chains E and H, no tetrahydrofolate) turn out when `NCC(=O)O` [Gly, glycine] was run?
Answer: Its value is “PLP-Gly external aldimine (chains B and F), and PLP internal aldimine with free Gly”.

Question: Which “X-ray crystallography, 1.74 A” value [2] does the source give for `Cc1ncc(COP(=O)(O)O)c(C=O)c1O` [PLP, pyridoxal 5′-phosphate] here?
Answer: The value was “two protein chains (A and B) contain the PLP bound as a Schiff base internal aldimine”.

Question: For `N[C@@H](CO)C(=O)O` [Ser, L-serine], which “X-ray crystallography, 1.91 A” value ([1]; covalent, PLP-Ser external aldimine in chains A and D, crystals soaked with 200 mM Ser for 2 h, pH 6.5, no tetrahydrofolate) is on record?
Answer: The value was “PLP-Ser external aldimine (chains A and D)”.

Question: How did the stoichiometry N [3] turn out when “chloroplast-targeted serine hydroxymethyltransferase from Medicago truncatula (MtSHMT3), residues 82-533 (enzyme)” was run?
Answer: Its stoichiometry N is 4.

Question: And the stoichiometry N [4]?
Answer: The stoichiometry N was 4.
